Data taken from patent US20250270191A1, “QUINOLONE BCL6 BIFUNCTIONAL DEGRADERS” (Treeline Biosciences, Inc., priority 2022, published 2025).

Target: T1, Human BCL6 protein (N-terminal HiBiT tagged BCL6 in HT1080 cells) (Homo sapiens, UniProt P41182+Q96SW2)
T1 construct: Human BCL6 protein coding open reading frame; expressed in transfected cells; host or cells: HT1080 (ATCC CCL-121), stably transduced with lentivirus pLV-UBC-N-HiBiT-BCL6-PGK-puro
Assay: HiBiT based BCL6 degradation assay
Assay type: cell-based
Conditions: HT1080 cells expressing N-terminal HiBiT tagged BCL6; 5 hours incubation; BCL6 degradation normalized with DMSO control
From the text: Human BCL6 protein coding open reading frame fused with N-terminal HiBiT coding sequence was synthesized from Integrated DNA Technologies (IDT). Next, the N-HiBiT-BCL6 sequence was cloned into pLV-UBC-PGK-Puro, a lentivirus plasmid purchased from Vectorbuilder, to generate pLV-UBC-N-HiBiT-BCL6-PGK-puro. Lentiviral particles were generated from Lenti-X™ 293T cells (Clontech) by co-transfection of pLV-UBC-N-HiBiT-BCL6-PGK-puro plasmids and lentiviral packaging plasmid mix (Cellecta). HT1080 [HT1080] (ATCC CCL-121) cells were infected with the lentivirus, and HT1080 cells stably integrated with the lentiviral vectors were established by incubation with 1 μg/mL puromycin (Thermofisher).
HT1080 cells expressing N-terminal HiBiT tagged BCL6 were dispensed into a 384-well plate pre-spotted with compounds at varying concentrations. Five thousand cells were seeded into each well in 40 μL of RPMI 1640 media plus 10% Fetal Bovine Serum (10082-147, Thermofisher). After 5 hours of incubation at 37° C. with 5% CO2, 30 μL of the NANO-GLO® HiBiT Lytic Detection System working solution (Promega) was added to each well and incubated at room temperature for 15 min. After incubation, luminescence was read on a PHERAstar FSX Plate Reader (BMG). BCL6 degradation at each indicated concentration was normalized with DMSO control. The BCL6 degradation curves were plotted using a four-parameter logistic model.

Compound	Ymin (5 hr)
CNC(=O)COc1cc2cc(Nc3nc(N4CCC(CNc5ccc(C6CCC(=O)NC6=O)cc5)CC4)ncc3Cl)ccc2n(C)c1=O (stereo not drawn) [Compound 265, 2-((6-((5-chloro-2-(4-(((4-(2,6-dioxopiperidin-3-yl)phenyl)amino)methyl)piperidin-1-yl)pyrimidin-4-yl)amino)-1-methyl-2-oxo-1,2-dihydroquinolin-3-yl)oxy)-N-methylacetamide]	++ (50% < Ymin ≤ 70%)
CNC(=O)COc1cc2cc(Nc3nc(N4CCC[C@@H](CNc5cccc6c(C7CCC(=O)NC7=O)nn(C)c56)C4)ncc3Cl)ccc2n(C)c1=O (stereo partly drawn) [Compound 266a, 2-((6-((5-chloro-2-((3S)-3-(((3-(2,6-dioxopiperidin-3-yl)-1-methyl-1H-indazol-7-yl)amino)methyl)piperidin-1-yl)pyrimidin-4-yl)amino)-1-methyl-2-oxo-1,2-dihydroquinolin-3-yl)oxy)-N-methylacetamide]	++ (50% < Ymin ≤ 70%)
CNC(=O)COc1cc2cc(Nc3nc(N4CCC[C@H](CNc5cccc6c(C7CCC(=O)NC7=O)nn(C)c56)C4)ncc3Cl)ccc2n(C)c1=O (stereo partly drawn) [Compound 266b, 2-((6-((5-chloro-2-((3R)-3-(((3-(2,6-dioxopiperidin-3-yl)-1-methyl-1H-indazol-7-yl)amino)methyl)piperidin-1-yl)pyrimidin-4-yl)amino)-1-methyl-2-oxo-1,2-dihydroquinolin-3-yl)oxy)-N-methylacetamide]	++ (50% < Ymin ≤ 70%)
CNC(=O)COc1cc2cc(Nc3nc(N4CCC[C@H](CNc5cccc(C6CCC(=O)NC6=O)c5)C4)ncc3Cl)ccc2n(C)c1=O (stereo partly drawn) [Compound 275a, 2-((6-((5-chloro-2-((3R)-3-(((3-(2,6-dioxopiperidin-3-yl)phenyl)amino)methyl)piperidin-1-yl)pyrimidin-4-yl)amino)-1-methyl-2-oxo-1,2-dihydroquinolin-3-yl)oxy)-N-methylacetamide]	+ (Ymin > 70%)
CNC(=O)COc1cc2cc(Nc3nc(N4CCC[C@@H](CNc5cccc(C6CCC(=O)NC6=O)c5)C4)ncc3Cl)ccc2n(C)c1=O (stereo partly drawn) [Compound 275b, 2-((6-((5-chloro-2-((3S)-3-(((3-(2,6-dioxopiperidin-3-yl)phenyl)amino)methyl)piperidin-1-yl)pyrimidin-4-yl)amino)-1-methyl-2-oxo-1,2-dihydroquinolin-3-yl)oxy)-N-methylacetamide]	++ (50% < Ymin ≤ 70%)
CNC(=O)COc1cc2cc(Nc3nc(NC[C@H]4CC[C@H](Nc5ccc(C6CCC(=O)NC6=O)cc5)CC4)ncc3Cl)ccc2n(C)c1=O (stereo partly drawn) [Compound 277a, 2-((6-((5-chloro-2-((((1r,4r)-4-((4-(2,6-dioxopiperidin-3-yl)phenyl)amino)cyclohexyl)methyl)amino)pyrimidin-4-yl)amino)-1-methyl-2-oxo-1,2-dihydroquinolin-3-yl)oxy)-N-methylacetamide]	+ (Ymin > 70%)
CNC(=O)COc1cc2cc(Nc3nc(NC[C@H]4CC[C@@H](Nc5ccc(C6CCC(=O)NC6=O)cc5)CC4)ncc3Cl)ccc2n(C)c1=O (stereo partly drawn) [Compound 277b, 2-((6-((5-chloro-2-((((1s,4s)-4-((4-(2,6-dioxopiperidin-3-yl)phenyl)amino)cyclohexyl)methyl)amino)pyrimidin-4-yl)amino)-1-methyl-2-oxo-1,2-dihydroquinolin-3-yl)oxy)-N-methylacetamide]	++ (50% < Ymin ≤ 70%)
CNC(=O)COc1cc2cc(Nc3nc(N4CCC[C@H]4CNc4ccc5c(C6CCC(=O)NC6=O)nn(C)c5c4)ncc3Cl)ccc2n(C)c1=O (stereo partly drawn) [Compound 279a, 2-((6-((5-chloro-2-((2S)-2-(((3-(2,6-dioxopiperidin-3-yl)-1-methyl-1H-indazol-6-yl)amino)methyl)pyrrolidin-1-yl)pyrimidin-4-yl)amino)-1-methyl-2-oxo-1,2-dihydroquinolin-3-yl)oxy)-N-methylacetamide]	++ (50% < Ymin ≤ 70%)
CNC(=O)COc1cc2cc(Nc3nc(N4CCC[C@@H]4CNc4ccc5c(C6CCC(=O)NC6=O)nn(C)c5c4)ncc3Cl)ccc2n(C)c1=O (stereo partly drawn) [Compound 279b, 2-((6-((5-chloro-2-((2R)-2-(((3-(2,6-dioxopiperidin-3-yl)-1-methyl-1H-indazol-6-yl)amino)methyl)pyrrolidin-1-yl)pyrimidin-4-yl)amino)-1-methyl-2-oxo-1,2-dihydroquinolin-3-yl)oxy)-N-methylacetamide]	+++ (25% < Ymin ≤ 50%)
CNC(=O)COc1cc2cc(Nc3nc(N4CCC[C@H](Nc5ccc6c(C7CCC(=O)NC7=O)nn(C)c6c5)C4)ncc3Cl)ccc2n(C)c1=O (stereo partly drawn) [Compound 280a, 2-((6-((5-chloro-2-((3S)-3-((3-(2,6-dioxopiperidin-3-yl)-1-methyl-1H-indazol-6-yl)amino)piperidin-1-yl)pyrimidin-4-yl)amino)-1-methyl-2-oxo-1,2-dihydroquinolin-3-yl)oxy)-N-methylacetamide]	++ (50% < Ymin ≤ 70%)
CNC(=O)COc1cc2cc(Nc3nc(N4CCC[C@@H](Nc5ccc6c(C7CCC(=O)NC7=O)nn(C)c6c5)C4)ncc3Cl)ccc2n(C)c1=O (stereo partly drawn) [Compound 280b, 2-((6-((5-chloro-2-((3R)-3-((3-(2,6-dioxopiperidin-3-yl)-1-methyl-1H-indazol-6-yl)amino)piperidin-1-yl)pyrimidin-4-yl)amino)-1-methyl-2-oxo-1,2-dihydroquinolin-3-yl)oxy)-N-methylacetamide]	+ (Ymin > 70%)
CNC(=O)COc1cc2cc(Nc3nc(N4CCC(CC5CCN(c6cccc7c(C8CCC(=O)NC8=O)nn(C)c67)CC5)CC4)ncc3Cl)ccc2n(C)c1=O (stereo not drawn) [Compound 281, 2-((6-((5-chloro-2-(4-((1-(3-(2,6-dioxopiperidin-3-yl)-1-methyl-1H-indazol-7-yl)piperidin-4-yl)methyl)piperidin-1-yl)pyrimidin-4-yl)amino)-1-methyl-2-oxo-1,2-dihydroquinolin-3-yl)oxy)-N-methylacetamide]	+++ (25% < Ymin ≤ 50%)
CNC(=O)COc1cc2cc(Nc3nc(N4CCN(C5CN(c6ccc7c(C8CCC(=O)NC8=O)nn(C)c7c6)C5)CC4)ncc3Cl)ccc2n(C)c1=O (stereo not drawn) [Compound 282, 2-((6-((5-chloro-2-(4-(1-(3-(2,6-dioxopiperidin-3-yl)-1-methyl-1H-indazol-6-yl)azetidin-3-yl)piperazin-1-yl)pyrimidin-4-yl)amino)-1-methyl-2-oxo-1,2-dihydroquinolin-3-yl)oxy)-N-methylacetamide]	+++ (25% < Ymin ≤ 50%)
CNC(=O)COc1cc2cc(Nc3nc(N4CCN(C5CN(c6cccc7c(C8CCC(=O)NC8=O)nn(C)c67)C5)CC4)ncc3Cl)ccc2n(C)c1=O (stereo not drawn) [Compound 283, 2-((6-((5-chloro-2-(4-(1-(3-(2,6-dioxopiperidin-3-yl)-1-methyl-1H-indazol-7-yl)azetidin-3-yl)piperazin-1-yl)pyrimidin-4-yl)amino)-1-methyl-2-oxo-1,2-dihydroquinolin-3-yl)oxy)-N-methylacetamide]	+++ (25% < Ymin ≤ 50%)
CNC(=O)COc1cc2cc(Nc3nc(N4CCC(CCNc5ccc(C6CCC(=O)NC6=O)cc5)CC4)ncc3Cl)ccc2n(C)c1=O (stereo not drawn) [Compound 284, 2-((6-((5-chloro-2-(4-(2-((4-(2,6-dioxopiperidin-3-yl)phenyl)amino)ethyl)piperidin-1-yl)pyrimidin-4-yl)amino)-1-methyl-2-oxo-1,2-dihydroquinolin-3-yl)oxy)-N-methylacetamide]	++ (50% < Ymin ≤ 70%)
CNC(=O)COc1cc2cc(Nc3nc(N4CCC(C5CN(c6cccc7c(C8CCC(=O)NC8=O)nn(C)c67)C5)CC4)ncc3Cl)ccc2n(C)c1=O (stereo not drawn) [Compound 286, 2-((6-((5-chloro-2-(4-(1-(3-(2,6-dioxopiperidin-3-yl)-1-methyl-1H-indazol-7-yl)azetidin-3-yl)piperidin-1-yl)pyrimidin-4-yl)amino)-1-methyl-2-oxo-1,2-dihydroquinolin-3-yl)oxy)-N-methylacetamide]	+++ (25% < Ymin ≤ 50%)
CNC(=O)COc1cc2cc(Nc3nc(N4CCC(OC5CCN(c6ccc7c(C8CCC(=O)NC8=O)nn(C)c7c6)CC5)CC4)ncc3Cl)ccc2n(C)c1=O (stereo not drawn) [Compound 287, 2-((6-((5-chloro-2-(4-((1-(3-(2,6-dioxopiperidin-3-yl)-1-methyl-1H-indazol-6-yl)piperidin-4-yl)oxy)piperidin-1-yl)pyrimidin-4-yl)amino)-1-methyl-2-oxo-1,2-dihydroquinolin-3-yl)oxy)-N-methylacetamide]	+++ (25% < Ymin ≤ 50%)
CNC(=O)COc1cc2cc(Nc3nc(N4CCC(CC5CCN(c6ccc7c(C8CCC(=O)NC8=O)nn(C)c7c6)CC5)CC4)ncc3Cl)ccc2n(C)c1=O (stereo not drawn) [Compound 288, 2-((6-((5-chloro-2-(4-((1-(3-(2,6-dioxopiperidin-3-yl)-1-methyl-1H-indazol-6-yl)piperidin-4-yl)methyl)piperidin-1-yl)pyrimidin-4-yl)amino)-1-methyl-2-oxo-1,2-dihydroquinolin-3-yl)oxy)-N-methylacetamide]	+++ (25% < Ymin ≤ 50%)
